The subject of test [1] is rhinovirus. As to the kind of experiment: plaque reduction (PR) test. Type of test: cell-based. Conditions: Enterovirus; 50% of the effective dose estimated from dose response curve; plaque numbers as percentages of a control; monolayer cell culture, compound in nutrient agarose overlay; read-out: PR(ED50). Here is the method:
Activity may be detected by the plaque inhibition (PI) test and measured by the plaque reduction (PR) test. Both assays involve the formation of a monolayer cell culture in a petri dish followed by infection with a virus suspension, and then overlaying the culture with nutrient agarose in the form of a gel. This gel ensures that there is no spread of virus throughout the culture and thus areas of localised cell destruction or plaques are formed. Detectable activity is measured with the plaque reduction assay. A range of concentrations of compound of known molarity are incorporated in the nutrient agarose overlay. Plaque suppression is proportional to compound concentration. Plaque numbers are expressed as percentages of a control, and a dose response curve may be drawn. From this curve 50% of the effective dose (ED50) may be estimated.

The test system of test [2] is rhinovirus. As to the kind of experiment: Intranasal Administration-Simulation in vitro (plaque inhibition, compound on petri dish lid). Type of test: cell-based. The following applies: 1 μg in ethanol applied to petri dish lids, ethanol evaporated; cell sheet covered with agarose gel. An excerpt: Activity may be detected by the plaque inhibition (PI) test and measured by the plaque reduction (PR) test. Both assays involve the formation of a monolayer cell culture in a petri dish followed by infection with a virus suspension, and then overlaying the culture with nutrient agarose in the form of a gel. This gel ensures that there is no spread of virus throughout the culture and thus areas of localised cell destruction or plaques are formed. In the plaque inhibition test a filter paper disc which holds 0.01 ml when impregnated with a solution of compound is placed on top of the agarose gel. The compound may then diffuse throughout the gel so that its greatest concentration will be around the disc and its lowest concentration towards the periphery of the petri dish. The efficacy of the compound may be detected by observing the zone of inhibition of plaque formation. Petri dishes were prepared, as for the plaque inhibition test and the confluent sheet of cells was covered with a layer of agarose gel. The compound, 2-(3-pyridyl)chroman (1 μg) was dissolved in ethanol, and applied to the lids of the petri dishes. When the ethanol had evaporated, leaving the compound spread over the inside of the lids, these were replaced on the petri dishes.

For `[O-][n+]1cccc(C2CCc3ccccc3O2)c1` (racemic) [2-(3-pyridyl)chroman N--oxide, 2-(3-pyridyl)chroman N-oxide], the EC50 in test [1] was 1100 nM.

Regarding `c1cncc(C2CCc3ccccc3O2)c1` (stereo not shown) [2-(3-pyridyl)chroman], the EC50 in test [1] is 390 nM. For the same molecule, in test [2], the “inhibition of plaque formulation” value is given as “total inhibition”.

Take `Clc1ccc2c(c1)CCC(c1cccnc1)O2` (stereo not shown) [6-chloro-2-(3-pyridyl)chroman]: in test [1], the EC50 was 42 nM.

Source of the values: patent publication US4563468A, “Chemotherapeutic agents” (Burroughs Wellcome Co., priority 1979, dated 1986).
